From patent publication US11992494B2, “Cyclopentathiophene carboxamide derivatives as platelet activating factor receptor antagonists” (Boehringer Ingelheim International GmbH, priority 2021, dated 2024)

target: PAFR (Homo sapiens, UniProt P25105); assay: cellular HTRF IP1 assay: inhibition of PAFR activation by PAF C-16 ligand (endpoint assay); format: cell-based; design: expressed in transfected cells; host or cells: HEK293; conditions: HEK293 cells overexpressing human PAFR; PAF ligand 11 nM; Table 2
Procedure: The ability of compounds of formula (I) to inhibit the activation of the PAF receptor (PAFR) by the PAF C-16 ligand (PAF) is determined using the following cellular HTRF IP1 assay (IP1 Gq assay kit from Cisbio, Cat. no.: 62IP1APEJ) in assay buffer (1×HBSS, 20 mM Hepes, pH 7.4, 50 mM LiCl and containing 0.1% (w/v) BSA):
Evaluation of the Inhibition of PAFR Activation Using an Endpoint Assay
HEK293 cells overexpressing human PAFR (produced in-house) are seeded into a Poly-D-Lysine coated 384 well white cell culture microtiter assay plate with lid (15.000 cells per well). Subsequently, the plates are incubated over night at 37° C./5% CO2. On the next day, cells are being washed and subsequently, various concentrations of the test compounds (compounds in 100% DMSO; final concentration of DMSO in wells is 1%) are added to the assay plate via Echo 555 acoustic liquid handler. Plates are then incubated with lid for 90 minutes at 37° C./5% CO2. Thereafter, PAF ligand (Cayman Chemical Company, Item no.: 60900) is added at a final concentration of 11 nM. Plates are then incubated with lid for 60 minutes at 37° C./5% CO2. Then, 5 μl per well of Anti-IP1-Antibody-Cryptate solution and 5 μl per well of IP1-d2 solution are added to all wells of the plate and the plate is incubated for another 60 minutes light protected at room temperature. The emissions at 620 nm and 665 nm (Excitation wavelength: 320 nm) are measured using an Envision Reader (PerkinElmer).

PAFR, sequence (P25105 whole entry): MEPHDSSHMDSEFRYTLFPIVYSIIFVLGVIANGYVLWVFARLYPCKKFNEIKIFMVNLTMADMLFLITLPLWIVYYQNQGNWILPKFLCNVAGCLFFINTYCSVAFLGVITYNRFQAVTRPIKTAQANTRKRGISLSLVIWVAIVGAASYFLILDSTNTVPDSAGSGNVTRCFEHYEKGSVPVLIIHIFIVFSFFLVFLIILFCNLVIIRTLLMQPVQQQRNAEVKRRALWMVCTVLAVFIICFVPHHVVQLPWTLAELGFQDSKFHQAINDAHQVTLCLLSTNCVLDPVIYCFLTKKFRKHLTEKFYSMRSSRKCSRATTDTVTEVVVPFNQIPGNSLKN

Q: `Cc1nnc2n1-c1sc3c(c1C(c1ccccc1Cl)=NC21CC1)C[C@H](C(=O)NC1(C)CCOCC1)C3` [Example 45] was tested. Which IC50 did it give?
A: The IC50 was 12 nM.

Q: How did the IC50 turn out when `Cc1nnc2n1-c1sc3c(c1C(c1ccccc1Cl)=NC21CC1)C[C@H](C(=O)NC1(c2ccccc2)CC1)C3` [Example 46] was run?
A: The IC50 was 2 nM.

Q: With `Cc1nnc2n1-c1sc3c(c1C(c1ccccc1Cl)=NC21CC1)C[C@H](C(=O)NC1CCC1(C)C)C3` (some centres unmarked) [Example 47] as the molecule, how does the IC50 read?
A: The IC50 was 1.6 nM.

Q: Which IC50 does the source give for `Cc1nnc2n1-c1sc3c(c1C(c1ccccc1Cl)=NC21CC1)C[C@H](C(=O)N(C)[C@@H]1CCOC1)C3` [Example 48] here?
A: The IC50 was 6.7 nM.

Q: For `Cc1nnc2n1-c1sc3c(c1C(c1ccccc1Cl)=NC21CC1)C[C@H](C(=O)N[C@H]1C[C@H](C#N)C1)C3` [Example 49], which IC50 is on record?
A: The IC50 was 7.7 nM.

Q: With `Cc1nnc2n1-c1sc3c(c1C(c1ccccc1Cl)=NC21CC1)C[C@H](C(=O)N[C@@H]1c2ccccc2C[C@@H]1O)C3` [Example 50] as the molecule, how does the IC50 read?
A: The IC50 was 2.4 nM.

Q: With `Cc1nnc2n1-c1sc3c(c1C(c1ccccc1Cl)=NC21CC1)C[C@H](C(=O)NC1CCOCC1)C3` [Example 51] as the molecule, how does the IC50 read?
A: The IC50 was 12 nM.

Q: How did the IC50 turn out when `Cc1nnc2n1-c1sc3c(c1C(c1ccccc1Cl)=NC21CC1)C[C@H](C(=O)N[C@H]1CC[C@@H](C(F)(F)F)CC1)C3` [Example 52] was run?
A: Its IC50 is 1.8 nM.

Q: For `Cc1nnc2n1-c1sc3c(c1C(c1ccccc1Cl)=NC21CC1)C[C@H](C(=O)N[C@H]1CCc2cccc(F)c21)C3` [Example 53], which IC50 is on record?
A: Its IC50 is 0.5 nM.

Q: How did the IC50 turn out when `Cc1nnc2n1-c1sc3c(c1C(c1ccccc1Cl)=NC21CC1)C[C@H](C(=O)NC1CCc2cnn(C)c2C1)C3` (some centres unmarked) [Example 54] was run?
A: The IC50 was 6.6 nM.

Q: `Cc1nnc2n1-c1sc3c(c1C(c1ccccc1Cl)=NC21CC1)C[C@H](C(=O)NC1COc2ccccc21)C3` (some centres unmarked) [Example 55] was tested. Which IC50 did it give?
A: The IC50 was 1.4 nM.

Q: How did the IC50 turn out when `Cc1nnc2n1-c1sc3c(c1C(c1ccccc1Cl)=NC21CC1)C[C@H](C(=O)NC1(c2cccc(F)c2)CC1)C3` [Example 56] was run?
A: Its IC50 is 1.1 nM.

Q: Which IC50 does the source give for `CO[C@@H]1CC[C@H]1NC(=O)[C@@H]1Cc2sc3c(c2C1)C(c1ccccc1Cl)=NC1(CC1)c1nnc(C)n1-3` [Example 57] here?
A: The IC50 was 7.1 nM.

Q: Which IC50 does the source give for `Cc1nnc2n1-c1sc3c(c1C(c1ccccc1Cl)=NC21CC1)C[C@H](C(=O)N[C@H]1CCc2ccccc2C1)C3` [Example 58] here?
A: Its IC50 is 0.4 nM.

Q: Which IC50 does the source give for `Cc1nnc2n1-c1sc3c(c1C(c1ccccc1Cl)=NC21CC1)C[C@H](C(=O)NC1CCCCC1)C3` [Example 59] here?
A: Its IC50 is 1.6 nM.

Q: Which IC50 does the source give for `Cc1nnc2n1-c1sc3c(c1C(c1ccccc1Cl)=NC21CC1)C[C@H](C(=O)N[C@@H]1C[C@H]1c1ccccc1)C3` [Example 60] here?
A: The IC50 was 1.3 nM.

Q: `Cc1nnc2n1-c1sc3c(c1C(c1ccccc1Cl)=NC21CC1)C[C@H](C(=O)NC1CCc2cc(F)ccc21)C3` (some centres unmarked) [Example 61] was tested. Which IC50 did it give?
A: Its IC50 is 0.6 nM.

Q: For `Cc1nnc2n1-c1sc3c(c1C(c1ccccc1Cl)=NC21CC1)C[C@H](C(=O)N[C@H]1CCN(c2ncccn2)C1)C3` [Example 62], which IC50 is on record?
A: The IC50 was 6.5 nM.

Q: `Cc1nnc2n1-c1sc3c(c1C(c1ccccc1Cl)=NC21CC1)C[C@H](C(=O)N[C@@H]1CCc2cc(C#N)ccc21)C3` [Example 63] was tested. Which IC50 did it give?
A: Its IC50 is 1.7 nM.

Q: With `Cc1nnc2n1-c1sc3c(c1C(c1ccccc1Cl)=NC21CC1)C[C@H](C(=O)NC1CCC12CCOCC2)C3` (some centres unmarked) [Example 64] as the molecule, how does the IC50 read?
A: Its IC50 is 8.6 nM.

Q: How did the IC50 turn out when `Cc1nnc2n1-c1sc3c(c1C(c1ccccc1Cl)=NC21CC1)C[C@H](C(=O)N1CC(C)(C)C1)C3` [Example 65] was run?
A: Its IC50 is 2.8 nM.

Q: With `CCCNC(=O)[C@@H]1Cc2sc3c(c2C1)C(c1ccccc1Cl)=NC1(CC1)c1nnc(C)n1-3` [Example 66] as the molecule, how does the IC50 read?
A: Its IC50 is 2.4 nM.

Q: With `Cc1nnc2n1-c1sc3c(c1C(c1ccccc1Cl)=NC21CC1)C[C@H](C(=O)NCCOC(F)(F)F)C3` [Example 67] as the molecule, how does the IC50 read?
A: The IC50 was 1.7 nM.

Q: With `Cc1nnc2n1-c1sc3c(c1C(c1ccccc1Cl)=NC21CC1)C[C@H](C(=O)NCC1CC1)C3` [Example 68] as the molecule, how does the IC50 read?
A: The IC50 was 1.9 nM.

Q: Which IC50 does the source give for `Cc1nnc2n1-c1sc3c(c1C(c1ccccc1Cl)=NC21CC1)C[C@H](C(=O)NC1CCC2(CC1)CC2)C3` [Example 69] here?
A: The IC50 was 1.5 nM.

Q: Which IC50 does the source give for `Cc1nnc2n1-c1sc3c(c1C(c1ccccc1Cl)=NC21CC1)C[C@H](C(=O)N[C@H]1CC[C@@H](F)C1)C3` [Example 70] here?
A: Its IC50 is 2.6 nM.

same assay, conditions: dedicated head-to-head comparison assay run: cyclopropylene vs di-methyl / cyclobutylene analogues

Q: `Cc1nnc2n1-c1sc3c(c1C(c1ccccc1Cl)=NC21CC1)C[C@H](C(=O)NC1CCOCC1)C3` [Example 51] was tested. Which IC50 did it give?
A: The IC50 was 9.7 nM.

Q: With `Cc1nnc2n1-c1sc3c(c1C(c1ccccc1Cl)=NC21CC1)C[C@H](C(=O)NC1CCc2cc(F)ccc21)C3` (some centres unmarked) [Example 61] as the molecule, how does the IC50 read?
A: Its IC50 is 1.1 nM.

Q: With `CCCNC(=O)[C@@H]1Cc2sc3c(c2C1)C(c1ccccc1Cl)=NC1(CC1)c1nnc(C)n1-3` [Example 66] as the molecule, how does the IC50 read?
A: The IC50 was 2.3 nM.
